Assay results taken from ChEMBL document CHEMBL2074386, “Saquinavir, an HIV protease inhibitor, is transported by P-glycoprotein” (J Pharmacol Exp Ther, 1998).

How the values were obtained:
[1] = target: T1, ATP-dependent translocase ABCB1 (Homo sapiens, UniProt P08183); experiment: TP_TRANSPORTER: inhibition of Rhodamine 123 transepithelial transport (basal to apical) (R123: 13 uM, Saquinavir: 20uM) in HCT-8 cells; type: functional, cell-based; conditions: hct-8, 20 µM
[2] = target: T1, ATP-dependent translocase ABCB1; experiment: TP_TRANSPORTER: transepithelial transport (basal to apical) in HCT-8 cells; type: functional, cell-based

T1 sequence (P08183 whole entry): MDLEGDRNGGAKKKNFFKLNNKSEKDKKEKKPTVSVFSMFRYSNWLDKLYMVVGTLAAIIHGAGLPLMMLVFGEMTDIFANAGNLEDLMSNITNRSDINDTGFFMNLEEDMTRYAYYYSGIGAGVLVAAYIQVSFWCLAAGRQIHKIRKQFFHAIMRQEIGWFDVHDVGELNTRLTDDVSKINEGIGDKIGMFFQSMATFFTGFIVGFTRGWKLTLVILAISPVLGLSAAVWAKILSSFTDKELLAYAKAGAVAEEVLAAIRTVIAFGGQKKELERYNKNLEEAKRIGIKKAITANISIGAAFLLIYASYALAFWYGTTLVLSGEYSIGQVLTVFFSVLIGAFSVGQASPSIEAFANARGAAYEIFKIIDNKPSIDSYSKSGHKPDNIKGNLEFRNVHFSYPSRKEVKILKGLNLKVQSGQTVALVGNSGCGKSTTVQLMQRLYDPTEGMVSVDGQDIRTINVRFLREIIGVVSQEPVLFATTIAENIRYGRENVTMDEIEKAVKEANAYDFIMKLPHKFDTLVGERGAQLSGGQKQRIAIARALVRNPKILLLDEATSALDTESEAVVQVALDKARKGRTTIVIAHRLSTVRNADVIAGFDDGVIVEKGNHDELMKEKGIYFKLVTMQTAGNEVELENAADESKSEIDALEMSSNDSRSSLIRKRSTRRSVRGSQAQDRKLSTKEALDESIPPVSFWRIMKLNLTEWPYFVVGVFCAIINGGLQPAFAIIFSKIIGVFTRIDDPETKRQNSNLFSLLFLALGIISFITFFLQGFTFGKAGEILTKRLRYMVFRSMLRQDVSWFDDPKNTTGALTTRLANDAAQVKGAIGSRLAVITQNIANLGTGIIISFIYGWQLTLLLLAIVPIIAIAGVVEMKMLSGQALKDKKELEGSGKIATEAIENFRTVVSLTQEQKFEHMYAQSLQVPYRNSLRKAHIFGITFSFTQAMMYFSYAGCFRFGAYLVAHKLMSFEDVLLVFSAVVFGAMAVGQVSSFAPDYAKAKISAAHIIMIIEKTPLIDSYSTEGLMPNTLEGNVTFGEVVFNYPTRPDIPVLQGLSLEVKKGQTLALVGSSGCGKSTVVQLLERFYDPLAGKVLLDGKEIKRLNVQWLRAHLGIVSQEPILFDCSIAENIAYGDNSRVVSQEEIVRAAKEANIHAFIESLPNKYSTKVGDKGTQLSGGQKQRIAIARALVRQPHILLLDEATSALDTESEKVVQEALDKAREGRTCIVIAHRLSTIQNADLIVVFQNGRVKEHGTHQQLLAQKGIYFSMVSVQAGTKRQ

Activity [2]	SMILES	Activity [1]
substrate [+]	CC(C)(C)NC(=O)[C@@H]1C[C@@H]2CCCC[C@@H]2CN1C[C@@H](O)[C@H](Cc1ccccc1)NC(=O)[C@H](CC(N)=O)NC(=O)c1ccc2ccccc2n1	inhibitor [(at a rough estimate) 45 % of control]
substrate [+]	COC(=O)c1ccccc1-c1c2ccc(=N)cc-2oc2cc(N)ccc12.Cl [RHODAMINE123]	–
